pEC50: −log10 of the molar value.

Sequence of FXR (Q96RI1 262-486): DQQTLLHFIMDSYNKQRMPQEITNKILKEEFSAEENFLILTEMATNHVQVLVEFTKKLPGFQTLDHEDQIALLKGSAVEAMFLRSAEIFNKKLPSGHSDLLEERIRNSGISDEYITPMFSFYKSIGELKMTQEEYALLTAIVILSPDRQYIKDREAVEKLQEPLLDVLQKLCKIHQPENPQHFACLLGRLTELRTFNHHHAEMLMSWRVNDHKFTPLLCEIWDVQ

For the test, the target named is FXR (Homo sapiens (Human), UniProt Q96RI1). The test is described as follows: transient human FXR/Gal4-luciferase reporter assay. Conditions: Gal4-hFXR fusion construct, HEK293 reporter cells; response relative to 8 μM GW-4064. The test is classed as cell-based. On the procedure:
A Gal4-hFXR fusion construct reporter system was used as the primary assay to characterize compound activity. A construct including 5 copies of the Gal4 promoter response element upstream of a firefly luciferase reporter cDNA was stably expressed in HEK293 cells. This reporter cell line was maintained in Dulbecco's Modified Eagle's medium (DMEM; Gibco) supplemented with 1% penicillin-streptomycin (P/S) solution, 500 μg/mL Zeocin and 10% charcoal/dextran-treated fetal bovine serum (cs-FBS) at 37° C. in a humidified 5% CO2 atmosphere. Another plasmid was constructed in which the human cytomegalovirus promoter in the pcDNA3.1 vector directs the expression of the cDNA encoding a fusion protein comprised of the DNA binding domain from the Gal4 transcription factor fused to the ligand binding domain from human FXR.
The day prior to transfection, the reporter cells in culture are detached from the plate with trypsin and plated into a T75 flask at a sufficient density to achieve approximately 90% confluence the next morning. The transfection reagents are prepared by separately diluting 25 μg of the pcDNA3.1-Gal4-FXR plasmid into 1.87 mL of Opti-MEM (Thermo-Fisher), and 40 μL of Lipofectamine 2000 (Thermo-Fisher) into 1.87 mL of Opti-MEM, and then adding the diluted DNA solution into the diluted Lipofectamine 2000 solution and incubating at room temperature for 15-20 minutes. The mixture is further diluted with 10 mL of a solution comprised of DMEM, 10% cs-FBS, and 1% P/S immediately prior to transferring to the cells. The maintenance culture media is aspirated from the cells and the final transfection mixture is added before the cells are incubated overnight at 37° C. in a humidified 5% CO2 atmosphere. This protocol can be scaled up, and the transiently transfected cells can be cryopreserved in an assay-ready format.
For compound testing, 100 nL of the compounds (serial dilutions in DMSO) are dispensed with an Echo acoustic dispenser (Labcyte) into the wells of a Corning/Costar clear bottom 384-well white plate. The transfected cells are harvested, counted, and diluted such that 10-25,000 cells in 25 μL are plated into each well of the 384-well compound assay plate. The compound-treated cells are incubated overnight at 37° C. in a humidified 5% CO2 atmosphere. The next morning 25 μL of Steady-Glo (Promega) are added to each well of the plate, the mixture is incubated for 15 min. with shaking, and luminescence is measured on an Envision (Perkin Elmer) plate reader.
(Reporter assays use an easily measured gene product as a stand-in for the process of interest.)
`CC(C)(O)c1ccc(-c2cccc(N(CC34CCC(c5noc(C(C)(C)F)n5)(CC3)CC4)C(=O)NC3CCC(O)(C(F)(F)F)CC3)c2)cc1` (single isomer, unassigned) [Example 600, 1-((4-(5-(2-fluoropropan-2-yl)-1,2,4-oxadiazol-3-yl)bicyclo[2.2.2]octan-1-yl)methyl)-3-(4-hydroxy-4-(trifluoromethyl)cyclohexyl)-1-(4′-(2-hydroxypropan-2-yl)-[1,1′-biphenyl]-3-yl) urea] gave a pEC50 of 7.80.

`CC(C)(O)c1ccc(-c2cccc(N(CC34CCC(c5noc(C(C)(C)F)n5)(CC3)CC4)C(=O)NC3CCC(O)(C(F)(F)F)CC3)c2)cc1` (single isomer, unassigned) [Example 601, 1-((4-(5-(2-fluoropropan-2-yl)-1,2,4-oxadiazol-3-yl)bicyclo[2.2.2]octan-1-yl)methyl)-3-(4-hydroxy-4-(trifluoromethyl)cyclohexyl)-1-(4′-(2-hydroxypropan-2-yl)-[1,1′-biphenyl]-3-yl) urea] showed a pEC50 of 6.61.

`CC(F)(F)c1nc(C23CCC(CN(C(=O)C4CC(O)(C(F)(F)F)C4)c4cccc(-c5ccc(C(O)C(F)F)cc5)c4)(CC2)CC3)no1` (single isomer, unassigned) [Example 628 (first eluting isomer)] showed a pEC50 of 7.04.

Compound `CC(F)(F)c1nc(C23CCC(CN(C(=O)C4CC(O)(C(F)(F)F)C4)c4cccc(-c5ccc(C(O)C(F)F)cc5)c4)(CC2)CC3)no1` (single isomer, unassigned) [Example 628 (second eluting isomer)] had a pEC50 of 6.89.

Turning to `COc1cc(-c2cccc(N(CC34CCC(c5nnc(C)o5)(CC3)CC4)C(=O)C34CC(F)(C3)C4)c2)ccn1` [Example 230, 3-Fluoro-N-(3-(2-methoxypyridin-4-yl)phenyl)-N-((4-(5-methyl-1,3,4-oxadiazol-2-yl)bicyclo[2.2.2]octan-1-yl)methyl)bicyclo[1.1.1]pentane-1-carboxamide], the pEC50 was 6.01.

Compound `COc1cc(-c2cccc(N(CC34CCC(c5nnc(C)o5)(CC3)CC4)C(=O)C3CCC3)c2)ccn1` [Example 231, N-(3-(2-methoxypyridin-4-yl)phenyl)-N-((4-(5-methyl-1,3,4-oxadiazol-2-yl)bicyclo[2.2.2]octan-1-yl)methyl)cyclobutanecarboxamide] showed a pEC50 of 6.23.

In turn, `COc1cc(-c2cccc(N(CC34CCC(c5nnc(C)s5)(CC3)CC4)C(=O)C34CC(F)(C3)C4)c2)ccn1` [Example 232, 3-Fluoro-N-(3-(2-methoxypyridin-4-yl)phenyl)-N-((4-(5-methyl-1,3,4-thiadiazol-2-yl)bicyclo[2.2.2]octan-1-yl)methyl)bicyclo[1.1.1]pentane-1-carboxamide] gave a pEC50 of 6.33.

For `COc1cc(-c2cccc(N(CC34CCC(c5nnc(C)s5)(CC3)CC4)C(=O)C3CCCC3)c2)ccn1` [Example 233, N-(3-(2-methoxypyridin-4-yl)phenyl)-N-((4-(5-methyl-1,3,4-thiadiazol-2-yl)bicyclo[2.2.2]octan-1-yl)methyl)cyclopentanecarboxamide], the pEC50 is 5.96.

For `COc1cc(-c2cccc(N(CC34CCC(c5nnc(C)s5)(CC3)CC4)C(=O)C3CC(F)(F)C3)c2)ccn1` [Example 234, 3,3-difluoro-N-(3-(2-methoxypyridin-4-yl)phenyl)-N-((4-(5-methyl-1,3,4-thiadiazol-2-yl)bicyclo[2.2.2]octan-1-yl)methyl)cyclobutane-1-carboxamide], the pEC50 was 5.76.

In turn, `COc1cc(-c2cccc(N(CC34CCC(c5nnc(C)s5)(CC3)CC4)C(=O)C3CCC(F)(F)C3)c2)ccn1` (stereo not shown) [Example 235, 3,3-difluoro-N-(3-(2-methoxypyridin-4-yl)phenyl)-N-((4-(5-methyl-1,3,4-thiadiazol-2-yl)bicyclo[2.2.2]octan-1-yl)methyl)cyclopentane-1-carboxamide] showed a pEC50 of 6.05.

The compound `COc1cc(-c2cccc(N(CC34CCC(c5nnc(C)s5)(CC3)CC4)C(=O)C3CC(O)(C(F)(F)F)C3)c2)ccn1` [Example 236, (1S,3S)-3-hydroxy-N-(3-(2-methoxypyridin-4-yl)phenyl)-N-((4-(5-methyl-1,3,4-thiadiazol-2-yl)bicyclo[2.2.2]octan-1-yl)methyl)-3-(trifluoromethyl)cyclobutane-1-carboxamide] gave a pEC50 of 5.81.

`COc1cc(-c2cccc(N(CC34CCC(c5ccnc(C)c5)(CC3)CC4)C(=O)C3CC(F)(F)C3)c2)ccn1` [Example 237, 3,3-Difluoro-N-(3-(2-methoxypyridin-4-yl)phenyl)-N-((4-(2-methylpyridin-4-yl)bicyclo[2.2.2]octan-1-yl)methyl)cyclobutane-1-carboxamide] gave a pEC50 of 6.27.

In turn, `COc1cc(-c2cccc(N(CC34CCC(c5ccnc(C)c5)(CC3)CC4)C(=O)C34CC(F)(C3)C4)c2)ccn1` [Example 238, 3-Fluoro-N-(3-(2-methoxypyridin-4-yl)phenyl)-N-((4-(2-methylpyridin-4-yl)bicyclo[2.2.2]octan-1-yl)methyl)bicyclo[1.1.1]pentane-1-carboxamide] gave a pEC50 of 6.29.

As to `COc1cc(-c2cccc(N(CC34CCC(c5cccc(C)n5)(CC3)CC4)C(=O)C34CC(F)(C3)C4)c2)ccn1` [Example 239, 3-Fluoro-N-(3-(2-methoxypyridin-4-yl)phenyl)-N-((4-(6-methylpyridin-2-yl)bicyclo[2.2.2]octan-1-yl)methyl)bicyclo[1.1.1]pentane-1-carboxamide], the pEC50 is 5.88.

The compound `COc1cc(-c2cccc(N(CC34CCC(c5cc(C(F)(F)F)ccn5)(CC3)CC4)C(=O)C3CCC3)c2)ccn1` [Example 240, N-(3-(2-methoxypyridin-4-yl)phenyl)-N-((4-(4-(trifluoromethyl)pyridin-2-yl)bicyclo[2.2.2]octan-1-yl)methyl)cyclobutanecarboxamide] gave a pEC50 of 5.67.

Compound `COc1cc(-c2cccc(N(CC34CCC(c5cc(C(F)(F)F)ccn5)(CC3)CC4)C(=O)C34CC(F)(C3)C4)c2)ccn1` [Example 241, 3-fluoro-N-(3-(2-methoxypyridin-4-yl)phenyl)-N-((4-(4-(trifluoromethyl)pyridin-2-yl)bicyclo[2.2.2]octan-1-yl)methyl)bicyclo[1.1.1]pentane-1-carboxamide] gave a pEC50 of 5.98.

Turning to `COc1nccc(-c2cccc(N(CC34CCC(c5nc(C6CC6)no5)(CC3)CC4)C(=O)C34CC(F)(C3)C4)c2)n1` [Example 242, N-((4-(3-cyclopropyl-1,2,4-oxadiazol-5-yl)bicyclo[2.2.2]octan-1-yl)methyl)-3-fluoro-N-(3-(2-methoxypyrimidin-4-yl)phenyl)bicyclo[1.1.1]pentane-1-carboxamide], the pEC50 is 6.56.

Compound `COc1nccc(-c2cccc(N(CC34CCC(c5nc(C6CC6)no5)(CC3)CC4)C(=O)C3CC(F)(F)C3)c2)n1` [Example 243, N-((4-(3-cyclopropyl-1,2,4-oxadiazol-5-yl)bicyclo[2.2.2]octan-1-yl)methyl)-3,3-difluoro-N-(3-(2-methoxypyrimidin-4-yl)phenyl)cyclobutane-1-carboxamide] showed a pEC50 of 6.37.

Turning to `COc1nccc(-c2cccc(N(CC34CCC(c5nc(C6CC6)no5)(CC3)CC4)C(=O)C3CCC3)c2)n1` [Example 244, N-((4-(3-cyclopropyl-1,2,4-oxadiazol-5-yl)bicyclo[2.2.2]octan-1-yl)methyl)-N-(3-(2-methoxypyrimidin-4-yl)phenyl)cyclobutanecarboxamide], the pEC50 is 6.24.

Compound `COc1nccc(-c2cccc(N(CC34CCC(c5nc(C6CC6)no5)(CC3)CC4)C(=O)C3CCC(F)(F)C3)c2)n1` (stereo not shown) [Example 245, N-((4-(3-cyclopropyl-1,2,4-oxadiazol-5-yl)bicyclo[2.2.2]octan-1-yl)methyl)-3,3-difluoro-N-(3-(2-methoxypyrimidin-4-yl)phenyl)cyclopentane-1-carboxamide] showed a pEC50 of 6.27.

For the compound `CS(=O)(=O)Nc1ccc(-c2cccc(N(CC34CCC(c5nc(C6CC6)no5)(CC3)CC4)C(=O)C34CC(F)(C3)C4)c2)cc1` [Example 246, N-((4-(3-cyclopropyl-1,2,4-oxadiazol-5-yl)bicyclo[2.2.2]octan-1-yl)methyl)-3-fluoro-N-(4′-(methylsulfonamido)-[1,1′-biphenyl]-3-yl)bicyclo[1.1.1]pentane-1-carboxamide], the pEC50 is 7.18.

As to `Cc1cc(-c2cccc(N(CC34CCC(c5nc(C6CC6)no5)(CC3)CC4)C(=O)C34CC(F)(C3)C4)c2)cnc1F` [Example 247, N-((4-(3-cyclopropyl-1,2,4-oxadiazol-5-yl)bicyclo[2.2.2]octan-1-yl)methyl)-3-fluoro-N-(3-(6-fluoro-5-methylpyridin-3-yl)phenyl)bicyclo[1.1.1]pentane-1-carboxamide], the pEC50 is 6.47.

What is called pEC50 is −log10 of the EC50, conventionally taken in molar units. A higher pEC50 goes with a small EC50.

These data come from US11254663B2 (BRISTOL-MYERS SQUIBB COMPANY, priority 2019, dated 2022).
